Reference: paper PMC10816640, “Discovery of Novel Diphenyl Acrylonitrile Derivatives That Promote Adult Rats’ Hippocampal Neurogenesis” (International Journal of Molecular Sciences, 2024)
Entries after “also recorded” stand apart in the source; their conditions may differ.

How the values were obtained:
Type in all cases: in vivo, rat
[1] = test system: newborn neural progenitor cells (differentiation into mature neurons); test: Differentiation stage of neurogenesis: NeuN/BrdU double staining, rats sacrificed 28 days after BrdU; settings: nine-week-old rats (n = 4), i.p. 4.0 mg/kg, Figure 9, 4 mg/kg
Text: (§1) Previous in vitro or in vivo studies mainly focused on stimulating the proliferation effect of the small molecules. In this study, a two-step protocol was employed. First, the stimulating function of the compounds on progenitor cells in the rodents’ hippocampi was examined with using bromodeoxyuridine (BrdU) labeling. Next, the potent compounds were further screened to ascertain their ability to promote the differentiation of neural progenitor cells, as confirmed by dual labeling of BrdU and NeuN (neuronal nuclear antigen).
The study employed a rat model, wherein nine-week-old rats were administered intraperitoneally with the compound at a dose of 4.0 mg/kg/day for 28 days and then treated with a pulse of BrdU. Instead of sacrificing the rats 24 h after the BrdU injections, the rats were sacrificed after another 28 days. The brains were then isolated and cryosectioned. Eight randomly selected slices were subjected to immunohistochemical staining. This staining enabled the co-localization of the BrdU-incorporated cells with the NeuN marker, enabling the definition of the compounds that could promote the differentiation of newborn neural progenitor cells into mature functional neurons.
(§2) The compounds were dissolved in reagent-grade soybean oil containing 10% ethanol to reach a drug concentration of 2.8 mg/mL. The rats in the experimental group received intraperitoneal injections of the compounds at a dose of 4.0 mg/kg/d for 28 consecutive days. As a control, the vehicle group was administered injections of reagent-grade soybean oil containing 10% ethanol. BrdU (Sigma-Aldrich, St. louis, MA, USA) solution, prepared in physiological saline at a concentration of 10 mg/mL, was administered to all rats on day 29. Each rat received two injections of BrdU at a dosage of 50 mg/kg, with a 2 h interval between injections. The rats were euthanized 24 h (or 28 days) after the final BrdU injection.
(§3) Two or four rats per group were anesthetized using pentobarbital sodium (70 mg/kg) and subsequently perfused with physiological saline. The brain tissue was carefully dissected and fixed in 4% paraformaldehyde at 4 °C for one week. Next, the brain tissue underwent dehydration using a phosphate-buffered saline (PBS) solution containing 20% to 30% sucrose. Finally, the brain tissue was cryosectioned into slices with a thickness of 30 μm, and eight slices were randomly selected for further analysis.
The differentiation process of NPCs was visualized through the utilization of the NeuN/BrdU double staining technique. Tissue sections were subjected to an incubation period in a blocking buffer at RT for 1 to 2 h. The specimens were exposed to a rabbit anti-NeuN antibody (diluted at 1:500, Abcam, Cambridge, MA, UK) and a primary antibody, BrdU (diluted at 1:500), overnight at 4 °C. Afterwards, the sections were treated with anti-mouse 488 and anti-rabbit TRITC secondary antibodies for 2 h at RT.
(§4) The data were presented as mean ± SEM (standard error of the mean) and visualized using GRAPHPAD PRISM 6 (Graphpad Software, La Jolla, CA, USA). Statistical analysis was conducted utilizing one-way analysis of variance (ANOVA) followed by a post hoc test. Subsequent to the statistical treatment, the observed discrepancies were determined to be statistically significant (p < 0.05).

[2] = test system: progenitor cells in the rodents’ hippocampi; test: Proliferation stage of neurogenesis: BrdU labeling, rats sacrificed 24 h after BrdU; settings: i.p. 4.0 mg/kg/day for 28 days, BrdU pulse, vs vehicle; for proliferation-promoting activity (number of BrdU+ newborn cells): eleven-week-old rats (n = 2)
Text: as §1
Adult rats were administered intraperitoneally with the prepared compounds at a dose of 4.0 mg/kg/day for a period of 28 days, followed by a BrdU pulse. After 24 h, the rats were sacrificed, and their brain tissues were isolated and cryosectioned. Immunohistochemical staining was performed and eight brain tissue slices were randomly selected for statistical analyzing.
Eight-week-old (or 10-week-old) SD male rats purchased from Peking University Health Science Center were acclimatized for one week at the Beijing Institute of Technology. All experimental protocols strictly adhered to the regulations governing the management of experimental animals and the animal ethics policy of the Beijing Institute of Technology.
as §2, §3
The assessment of new cell proliferation was conducted using BrdU staining. To eliminate endogenous peroxides, sections were exposed to 1% H2O2 for 30 min at RT. Cellular denaturation was achieved by treating the sections with 2 M HCl at 37 °C for 1 h, followed by rinsing in 0.1 M borate buffer (pH 8.5). Tissue sections were subjected to blocking in a solution consisting of 5% goat serum and 0.5% Triton X-100 in PBS at RT for 1–2 h. The specimens were then incubated overnight at 4 °C with a mouse primary antibody specific to BrdU (diluted at 1:500; Millipore, Billerica, MA, USA). Subsequently, the DAB kit was employed for 2 h of incubation at RT.
as §4

[3] = test system: newborn cells in the subgranular zone; test: BrdU+ newborn cells, rats sacrificed 28 days after BrdU; settings: nine-week-old rats (n = 2), i.p. 4.0 mg/kg/day for 28 days, BrdU pulse, Figure 7A
Procedure: The study employed a rat model, wherein nine-week-old rats were administered intraperitoneally with the compound at a dose of 4.0 mg/kg/day for 28 days and then treated with a pulse of BrdU. Instead of sacrificing the rats 24 h after the BrdU injections, the rats were sacrificed after another 28 days. The brains were then isolated and cryosectioned. Eight randomly selected slices were subjected to immunohistochemical staining. This staining enabled the co-localization of the BrdU-incorporated cells with the NeuN marker, enabling the definition of the compounds that could promote the differentiation of newborn neural progenitor cells into mature functional neurons. The compounds were dissolved in reagent-grade soybean oil containing 10% ethanol to reach a drug concentration of 2.8 mg/mL. The rats in the experimental group received intraperitoneal injections of the compounds at a dose of 4.0 mg/kg/d for 28 consecutive days. As a control, the vehicle group was administered injections of reagent-grade soybean oil containing 10% ethanol. BrdU (Sigma-Aldrich, St. louis, MA, USA) solution, prepared in physiological saline at a concentration of 10 mg/mL, was administered to all rats on day 29. Each rat received two injections of BrdU at a dosage of 50 mg/kg, with a 2 h interval between injections. The rats were euthanized 24 h (or 28 days) after the final BrdU injection. Two or four rats per group were anesthetized using pentobarbital sodium (70 mg/kg) and subsequently perfused with physiological saline. The brain tissue was carefully dissected and fixed in 4% paraformaldehyde at 4 °C for one week. Next, the brain tissue underwent dehydration using a phosphate-buffered saline (PBS) solution containing 20% to 30% sucrose. Finally, the brain tissue was cryosectioned into slices with a thickness of 30 μm, and eight slices were randomly selected for further analysis. The assessment of new cell proliferation was conducted using BrdU staining. To eliminate endogenous peroxides, sections were exposed to 1% H2O2 for 30 min at RT. Cellular denaturation was achieved by treating the sections with 2 M HCl at 37 °C for 1 h, followed by rinsing in 0.1 M borate buffer (pH 8.5). Tissue sections were subjected to blocking in a solution consisting of 5% goat serum and 0.5% Triton X-100 in PBS at RT for 1–2 h. The specimens were then incubated overnight at 4 °C with a mouse primary antibody specific to BrdU (diluted at 1:500; Millipore, Billerica, MA, USA). Subsequently, the DAB kit was employed for 2 h of incubation at RT. The differentiation process of NPCs was visualized through the utilization of the NeuN/BrdU double staining technique. Tissue sections were subjected to an incubation period in a blocking buffer at RT for 1 to 2 h. The specimens were exposed to a rabbit anti-NeuN antibody (diluted at 1:500, Abcam, Cambridge, MA, UK) and a primary antibody, BrdU (diluted at 1:500), overnight at 4 °C. Afterwards, the sections were treated with anti-mouse 488 and anti-rabbit TRITC secondary antibodies for 2 h at RT. The data were presented as mean ± SEM (standard error of the mean) and visualized using GRAPHPAD PRISM 6 (Graphpad Software, La Jolla, CA, USA). Statistical analysis was conducted utilizing one-way analysis of variance (ANOVA) followed by a post hoc test. Subsequent to the statistical treatment, the observed discrepancies were determined to be statistically significant (p < 0.05).

SMILES | proliferation-promoting activity (number of BrdU+ newborn cells) ([2]; Figures 3-6, 4 mg/kg/day) | proliferative activity over the longer 28 day period (number of BrdU+ cells) [3] | proliferation-promoting activity (number of BrdU+ newborn cells) ([2]; Figures 3-6) | other results
CC(=O)Nc1ccc(/C(C#N)=C/c2ccc3c(c2)OCO3)cc1 [29a, (Z)-N-(4-(2-(benzo[d][1, 3]dioxol-5-yl)-1-cyanovinyl)phenyl)acetamide] |  |  |  | neurogenesis-promoting activity (number of NeuN+ and BrdU+ cells), differentiation stage [1]: did not show activity; also recorded: no significant neurogenesis-promoting activity; proliferation-promoting activity (number of BrdU+ positive cells) ([2]; nine-week-old rats (n = 4), Figure 8): inactive
CC(C)C(=O)Nc1ccc(/C=C/Cc2ccc3c(c2)OCO3)cc1 [23b, (E)-N-(4-(3-(benzo[d][1, 3]dioxol-5-yl)prop-1-en-1-yl)phenyl)isobutyramide] | significant proliferation-promoting activity; also recorded: maintained the same proliferative activity as 9b | did not exhibit significant proliferative activity |  | 
CC(C)C(=O)NCc1ccc(/C=C/c2ccc3c(c2)OCO3)cc1 [42b, (E)-N-(4-(2-(benzo[d][1, 3]dioxol-5-yl)vinyl)benzyl)isobutyramide] | not and loss of activity | remained devoid of proliferative activity |  | 
COc1cc(/C=C/c2ccc(NC(=O)c3ccccc3)c(F)c2)cc(OC)c1 [12f, (E)-N-(4-(3,5-dimethoxystyryl)-2-fluorophenyl)benzamide] | not and adversely affected the proliferative activity |  |  | 
COc1cc(/C=C/c2ccc(NC(=O)C(C)C)cc2)cc(OC)c1 [9b, (E)-N-(4-(3,5-dimethoxystyryl)phenyl)isobutyramide] |  |  | significant proliferation-promoting activity | 
CS(=O)(=O)Nc1ccc(/C=C/Cc2ccc3c(c2)OCO3)cc1 [23i, (E)-N-(4-(3-(benzo[d][1, 3]dioxol-5-yl)prop-1-en-1-yl)phenyl)methanesulfonamide] |  |  | decreased | 
O=C(Nc1ccc(/C=C/c2ccc3c(c2)OCO3)cc1)C1CCC1 [8d, (E)-N-(4-(2-(benzo[d][1, 3]dioxol-5-yl)vinyl)phenyl)cyclobutanecarboxamide] | significant proliferation-promoting activity; also recorded: greater propensity for enhancing activity | could promote the proliferation of progenitors |  | 
CN(C)C(=O)Nc1ccc(/C=C/c2ccc3c(c2)OCO3)cc1 [8c, (E)-3-(4-(2-(benzo[d][1, 3]dioxol-5-yl)vinyl)phenyl)-1,1-dimethylurea] |  | could promote the proliferation of progenitors | significant proliferation-promoting activity | 
CN(C)S(=O)(=O)Cc1ccc(/C=C/c2ccc3c(c2)OCO3)cc1 [8j, (E)-1-(4-(2-(benzo[d][1, 3]dioxol-5-yl)vinyl)phenyl)-N,N-dimethylmethanesulfonamide] | significant proliferation-promoting activity; also recorded: greater propensity for enhancing activity |  |  | 
CC(C)C(=O)Nc1ccc(C/C=C/c2ccc3c(c2)OCO3)cc1 [18b, (E)-N-(4-(3-(benzo[d][1, 3]dioxol-5-yl)allyl)phenyl)isobutyramide] | significant proliferation-promoting activity; also recorded: maintained the same proliferative activity as 9b | did not exhibit significant proliferative activity |  | 
CC(=O)Nc1ccc(CN(C)Cc2ccc3c(c2)OCO3)cc1 [36a, N-(4-(((benzo[d][1, 3]dioxol-5-ylmethyl)(methyl)amino)methyl)phenyl)acetamide] |  |  | abolished the activity | 
N#CC1(C(=O)Nc2ccc(/C=C/c3ccc4c(c3)OCO4)cc2)CC1 [8e, (E)-N-(4-(2-(benzo[d][1, 3]dioxol-5-yl)vinyl)phenyl)-1-cyanocyclopropane-1-carboxamide] |  |  | did not display significant activity | 
COc1cc(C/C=C/c2ccc(NC(=O)C(C)C)cc2)cc(OC)c1 [24b, (E)-N-(4-(3-(3,5-dimethoxyphenyl)prop-1-en-1-yl)phenyl)isobutyramide] |  | did not exhibit significant proliferative activity |  | 
O=S(=O)(Nc1ccc(/C=C/c2ccc3c(c2)OCO3)cc1)C1CC1 [8k, (E)-N-(4-(2-(benzo[d][1, 3]dioxol-5-yl)vinyl)phenyl)cyclopropanesulfonamide] | significant proliferation-promoting activity; also recorded: greater propensity for enhancing activity | could promote the proliferation of progenitors |  | 
